Consider 14 compounds from patent publication US10130630B2, “BTK inhibitors” (MERCK SHARP & DOHME CORP., priority 2014, dated 2018).

pIC50: −log10 of the molar value. Where two headings read alike, the source gives them in different places.

Assay [1] concerns adenosine uptake into HeLa cells. Description: [3H]Adenosine uptake assay in HeLa cells. The assay is classed as cell-based. As to conditions: 60 minutes uptake, read-out: ADU inhibition IC50 (adenosine uptake inhibition potency). As for the experimental part:
Compounds were also screened in an adenosine uptake functional cellular assay using the protocol described below.
Adenosine uptake activity was determined by monitoring the accumulation of tritiated adenosine into HeLa cells (ATCC catalog # CCL-2) using a PMT-based radiometric detection instrument. In this assay, the potency (IC50) of each compound was determined from a ten point (1:3 serial dilution; final compound concentration range in assay from 10 μM to 0.032 nM) titration curve using the following outlined procedure. To each well of a 96-well CytoStar-T scintillating microplate (Perkin Elmer Catalog # RPNQ0163), 25 000 HeLa cells in 100 μL of growth medium comprising: Minimum Essential Media (Life Technologies Catalog # 11095-080)+10% (v/v) foetal bovine serum (FBS; Sigma Aldrich Catalog # F2442) was added. These cells were incubated overnight at 37° C. in a humidified atmosphere with 5% (v/v) CO2. After this time the growth medium was removed and replaced with 40 μL assay medium comprising: Hanks balanced salts solution (HBSS; Thermo Fisher Catalog # SH30268.01)+5% (v/v) FBS. Compound stock solutions in DMSO were diluted in assay medium to 2.5× final compound concentration maintaining a constant DMSO concentration of 0.25% (v/v). 40 μL of compound in assay medium was dispensed into individual wells of the Cytostar-T plates and the plates were incubated for 30 minutes under ambient laboratory conditions. Following this incubation, 20 μL of 500 nM [^3H]adenosine (American Radiolabeled Chemicals Inc. Catalog # ART0287) in assay medium was added and incubated for a further 60 minutes under ambient laboratory conditions. The amount of radiolabel accumulation was then determined using a Perkin Elmer Topcount NXT microplate reader. In brief, HeLa cells adhere to the bottom of the Cytostar-T plate, uptake of [^3H]adenosine into these cells brings the radiolabel into sufficient proximity to excite the scintillant in the base of the plates. These events are captured by single PMT, time-resolved coincidence counting. IC50 values were determined by 4 parameter robust fit of counts per second values vs. (Log10) compound concentrations.

The target in assay [2] is T1, BTK enzyme (full-length BTK, hBTK) (Homo sapiens, UniProt Q06187).
T1 construct: recombinant protein from baculovirus-transfected Sf9 cells: full-length BTK, 6HIS-tag cleaved; 6HIS (cleaved yes); made in house; host or cells: baculovirus-transfected Sf9 cells
T1 sequence (Q06187 whole entry): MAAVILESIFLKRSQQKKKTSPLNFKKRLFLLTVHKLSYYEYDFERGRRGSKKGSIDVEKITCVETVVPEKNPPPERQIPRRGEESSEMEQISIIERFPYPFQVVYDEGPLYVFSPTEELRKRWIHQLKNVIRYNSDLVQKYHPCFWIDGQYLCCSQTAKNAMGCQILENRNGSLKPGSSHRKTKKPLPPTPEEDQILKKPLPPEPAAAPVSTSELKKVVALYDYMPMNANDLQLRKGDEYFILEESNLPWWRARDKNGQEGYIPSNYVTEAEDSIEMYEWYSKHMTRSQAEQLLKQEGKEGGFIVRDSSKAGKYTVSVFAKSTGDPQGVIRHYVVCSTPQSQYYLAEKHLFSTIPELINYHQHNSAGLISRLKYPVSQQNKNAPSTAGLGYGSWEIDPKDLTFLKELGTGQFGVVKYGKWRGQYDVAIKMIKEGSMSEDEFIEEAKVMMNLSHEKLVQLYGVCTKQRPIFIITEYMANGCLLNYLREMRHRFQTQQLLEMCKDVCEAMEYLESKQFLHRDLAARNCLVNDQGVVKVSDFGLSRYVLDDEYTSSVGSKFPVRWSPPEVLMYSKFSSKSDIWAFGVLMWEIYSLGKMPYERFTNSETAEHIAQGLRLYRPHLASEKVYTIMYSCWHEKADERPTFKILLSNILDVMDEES
Description: Btk enzyme activity assay (LANCE TR-FRET). The assay is classed as biochemical. As to conditions: 50 pM hBTK, 25 μM ATP, 60 minute compound and enzyme incubation, read-out: BTK binding IC50. Here is the method:
BTK enzymatic activity was determined with the LANCE (Lanthanide Chelate Excite) TR-FRET (Time-resolved fluorescence resonance energy transfer) assay. […] To each well of a black non-binding surface Corning 384-well microplate (Corning Catalog #3820), 5 nL of compound (2000 fold dilution in final assay volume of 10 μL) was dispensed, followed by the addition of 7.5 μL of 1× kinase buffer (50 mM Hepes 7.5, 10 mM MgCl2, 0.01% Brij-35, 1 mM EGTA, 0.05% BSA & 1 mM DTT) containing 5.09 pg/μL (66.67 pM) of BTK enzyme (recombinant protein from baculovirus-transfected Sf9 cells: full-length BTK, 6HIS-tag cleaved). Following a 60 minute compound and enzyme incubation, each reaction was initiated by the addition of 2.5 μL 1× kinase buffer containing 8 μM biotinylated “A5” peptide (Biotin-[…]-NH2) (SEQ.ID.NO.: 1), and 100 μM ATP. The final reaction in each well of 10 μL consists of 50 pM hBTK, 2 μM biotin-A5-peptide, and 25 μM ATP. Phosphorylation reactions were allowed to proceed for 120 minutes. Reactions were immediately quenched by the addition of 20 uL of 1× quench buffer (15 mM EDTA, 25 mM Hepes 7.3, and 0.1% Triton X-100) containing detection reagents (0.626 nM of LANCE-Eu-W1024-anti-phosphoTyrosine antibody, PerkinElmer and 86.8 nM of Streptavidin-conjugated Dylight 650, Dyomics/ThermoFisher Scientific). After 60 minutes incubation with detection reagents, reaction plates were read on a PerkinElmer EnVision plate reader using standard TR-FRET protocol. Briefly, excitation of donor molecules (Eu-chelate:anti-phospho-antibody) with a laser light source at 337 nm produces energy that can be transferred to Dylight-650 acceptor molecules if this donor:acceptor pair is within close proximity. Fluorescence intensity at both 665 nm (acceptor) and 615 nm (donor) are measured and a TR-FRET ratio calculated for each well (acceptor intensity/donor intensity). IC50 values were determined by 4 parameter robust fit of TR-FRET ratio values vs. (Log10) compound concentrations.
The following Table 2 provides specific IC50 values for all the examples. The IC50 values set forth below were determined according to Assay method described above.
(In general: TR-FRET usually uses a lanthanide donor and a delayed reading to cut background.)

In the case of `CCOc1cc(C(=O)Nc2cc(C(F)(F)F)ccn2)ccc1-c1nc([C@@H]2CC[C@@H]3N(C2)C(=O)CC32CC2)n2ccnc(N)c12` [Compound 18, 4-{8-amino-3-[(6′R,8a′S)-3′-oxohexahydro-5′H-spiro[cyclopropane-1,1′-indolizin]-6′-yl]imidazo[1,5-a]pyrazin-1-yl}-3-ethoxy-N-[4-(trifluoromethyl)pyridin-2-yl]benzamide], the pIC50 (usually the negative decadic logarithm of the IC50, by convention in mol/L) in assay [1] (Homo sapiens, HeLa) was 5.96; in assay [2], 9.90.
As to `CCOc1cc(C(=O)Nc2cc(C(F)(F)F)n(C)n2)ccc1-c1nc([C@@H]2CC[C@@H]3N(C2)C(=O)C2(CC2)C3(F)F)n2ccnc(N)c12` [Compound 32, 4-{8-amino-3-[(6′R,8a′S)-1′,1′-difluoro-3′-oxohexahydrospiro[cyclopropane-1,2′-indolizin]-6′-yl]imidazo[1,5-a]pyrazin-1-yl}-3-ethoxy-N-[1-methyl-5-(trifluoromethyl)-1H-pyrazol-3-yl]benzamide], the pIC50 in assay [1] (Homo sapiens, HeLa) was 5.53; in assay [2], 8.21.
In the case of `CCOc1cc(C(=O)Nc2cc(C(F)(F)F)ccn2)ccc1-c1nc(C2CCC3N(C2)C(=O)CNC32CC2)n2ccnc(N)c12` (stereo not shown) [Compound 43, 4-[8-amino-3-(4′-oxohexahydro-2′H,6′H-spiro[cyclopropane-1,1′-pyrido[1,2-a]pyrazin]-7′-yl)imidazo[1,5-a]pyrazin-1-yl]-3-ethoxy-N-[4-(trifluoromethyl)pyridin-2-yl]benzamide], the pIC50 was 5.92 in assay [1] and 8.25 in assay [2].
For `CCOc1cc(C(=O)Nc2cc(C(F)(F)F)ccn2)ccc1-c1nc([C@H]2CN3C(=O)[C@@H]4CCCN4C[C@@H]3CO2)n2ccnc(N)c12` [Compound 36, 4-{8-amino-3-[(3R,6aS,11aR)-6-oxooctahydro-1H,6H-pyrrolo[1′,2′:4,5]pyrazino[2,1-c][1,4]oxazin-3-yl]imidazo[1,5-a]pyrazin-1-yl}-3-ethoxy-N-[4-(trifluoromethyl)pyridin-2-yl]benzamide], the negative-log IC50 (pIC50) in assay [1] (Homo sapiens, HeLa) is 5.90; in assay [2], 9.00.
In the case of `CCOc1cc(C(=O)Nc2cc(C#N)ccn2)cc(F)c1-c1nc(C2CCC3N(C2)C(=O)CC32CC2)n2c(Cl)cnc(N)c12` (stereo not shown) [Compound 37, 4-[8-amino-5-chloro-3-(3′-oxohexahydro-5′H-spiro[cyclopropane-1,1′-indolizin]-6′-yl)imidazo[1,5-a]pyrazin-1-yl]-N-(4-cyanopyridin-2-yl)-3-ethoxy-5-fluorobenzamide], the negative logarithm of the IC50 (pIC50) is 6.43 in assay [1] (Homo sapiens, HeLa) and 9.73 in assay [2].
Consider `Nc1nccn2c([C@@H]3CC[C@H]4C(=O)C5(CC5)C(=O)N4C3)nc(-c3ccc(C(=O)Nc4cc(C(F)(F)F)ccn4)cc3)c12` [Compound 6, 4-{8-amino-3-[(6′R,8a′S)-1′,3′-dioxohexahydrospiro[cyclopropane-1,2′-indolizin]-6′-yl]imidazo[1,5-a]pyrazin-1-yl}-N-[4-(trifluoromethyl)pyridin-2-yl]benzamide], for which the negative-log IC50 (pIC50) is 6.82 in assay [1] (Homo sapiens, HeLa) and 9.07 in assay [2].
As for `Nc1nccn2c([C@@H]3CC[C@H]4C(=O)C5(CC5)C(=O)N4C3)nc(-c3ccc(C(=O)Nc4cc(C(F)(F)F)ccn4)cc3F)c12` [Compound 7, 4-{8-amino-3-[(6′R,8a′S)-1′,3′-dioxohexahydrospiro[cyclopropane-1,2′-indolizin]-6′-yl]imidazo[1,5-a]pyrazin-1-yl}-3-fluoro-N-[4-(trifluoromethyl)pyridin-2-yl]benzamide], the pIC50 was 6.76 in assay [1] (Homo sapiens, HeLa) and 9.37 in assay [2].
For the compound `CCOc1cc(C(=O)Nc2cc(C#N)ccn2)cc(F)c1-c1nc(C2CCC3N(C2)C(=O)CC32CC2)n2ccnc(N)c12` (stereo not shown) [Compound 38, 4-[8-amino-3-(3′-oxohexahydro-5′H-spiro[cyclopropane-1,1′-indolizin]-6′-yl)imidazo[1,5-a]pyrazin-1-yl]-N-(4-cyanopyridin-2-yl)-3-ethoxy-5-fluorobenzamide], the negative logarithm of the IC50 (pIC50) in assay [1] (Homo sapiens, HeLa) is 6.12; in assay [2], 9.65.
Turning to `COc1cc(C(=O)Nc2cc(C(F)(F)F)ccn2)ccc1-c1nc([C@@H]2CC[C@H]3CNC4(CC4)C(=O)N3C2)n2ccnc(N)c12` [Compound 41, 4-{8-amino-3-[(7′R,9a′S)-4′-oxohexahydro-2′H-spiro[cyclopropane-1,3′-pyrido[1,2-a]pyrazin]-7′-yl]imidazo[1,5-a]pyrazin-1-yl}-3-methoxy-N-[4-(trifluoromethyl)pyridin-2-yl]benzamide], the negative logarithm of the IC50 (pIC50) is 5.87 in assay [1] (Homo sapiens, HeLa) and 9.60 in assay [2].
For `Nc1nccn2c([C@@H]3CC[C@H]4C(O)C5(CC5)C(=O)N4C3)nc(-c3ccc(C(=O)Nc4cc(C5CC5)ccn4)cc3)c12` (stereo partly drawn) [Compound 13, 4-(8-amino-3-((1′S,6′R,8a′S)-1′-hydroxy-3′-oxohexahydro-1′H-spiro[cyclopropane-1,2′-indolizin]-6′-yl)imidazo[1,5-a]pyrazin-1-yl)-N-(4-cyclopropanepyridin-2-yl)benzamide], the pIC50 in assay [1] (Homo sapiens, HeLa) is 6.21; in assay [2] it was 8.91.
The corresponding values for `COc1cc(C(=O)Nc2cc(C(F)(F)F)ccn2)ccc1-c1nc([C@H]2CC[C@H]3N(C2)C(=O)C2(CC2)C3(F)F)n2ccnc(N)c12` [Compound 29, 4-{8-amino-3-[(6′S,8a′R)-1′,1′-difluoro-3′-oxohexahydrospiro[cyclopropane-1,2′-indolizin]-6′-yl]imidazo[1,5-a]pyrazin-1-yl}-3-methoxy-N-[4-(trifluoromethyl)pyridin-2-yl]benzamide] are 6.17 and 8.82.
Take `CCOc1cc(C(=O)Nc2cc(C(F)(F)F)ccn2)ccc1-c1nc([C@@H]2CC[C@H]3CN4CCC[C@@H]4C(=O)N3C2)n2ccnc(N)c12` [Compound 15, 4-{8-amino-3-[(5aS,8R,11aR)-11-oxodecahydro-1H-pyrido[1,2-a]pyrrolo[1,2-d]pyrazin-8-yl]imidazo[1,5-a]pyrazin-1-yl}-3-ethoxy-N-[4-(trifluoromethyl)pyridin-2-yl]benzamide]: the pIC50 in assay [1] (Homo sapiens, HeLa) is 5.95; in assay [2] it was 9.34.
On to `COc1cc(C(=O)Nc2cc(C(F)(F)F)ccn2)cc(F)c1-c1nc([C@@H]2CC[C@@H]3N(C2)C(=O)C2(CC2)C3(F)F)n2ccnc(N)c12` [Compound 30, 4-{8-amino-3-[(6′R,8a′S)-1′,1′-difluoro-3′-oxohexahydrospiro[cyclopropane-1,2′-indolizin]-6′-yl]imidazo[1,5-a]pyrazin-1-yl}-3-fluoro-5-methoxy-N-[4-(trifluoromethyl)pyridin-2-yl]benzamide], for which the pIC50 in assay [1] (Homo sapiens, HeLa) was 5.97; in assay [2], 8.79.
As to `Nc1nccn2c([C@@H]3CC[C@H]4CNC5(CC5)C(=O)N4C3)nc(-c3ccc(C(=O)Nc4cc(C(F)(F)F)ccn4)cc3)c12` [Compound 40, 4-{8-amino-3-[(7′R,9a′S)-4′-oxohexahydro-2′H-spiro[cyclopropane-1,3′-pyrido[1,2-a]pyrazin]-7′-yl]imidazo[1,5-a]pyrazin-1-yl}-N-[4-(trifluoromethyl)pyridin-2-yl]benzamide], the negative logarithm of the IC50 (pIC50) is 6.77 in assay [1] (Homo sapiens, HeLa) and 9.76 in assay [2].
